Data as given in patent publication US20230113037A1 (Bayer Aktiengesellschaft, priority 2019, published 2023).

target: T1, AHR (Mus musculus, UniProt P30561); test: In vitro assay 3: antagonism in mouse cell line (AHR transactivation, firefly luciferase reporter, kynurenic acid prestimulated); format: cell-based; conditions: mouse Hepa 1c1c7 cells, 200 μM kynurenic acid, 20 hours, read-out: AHR Antagonism Mouse IC50
T1 sequence (P30561 1-848 P471L/N533S/M589L): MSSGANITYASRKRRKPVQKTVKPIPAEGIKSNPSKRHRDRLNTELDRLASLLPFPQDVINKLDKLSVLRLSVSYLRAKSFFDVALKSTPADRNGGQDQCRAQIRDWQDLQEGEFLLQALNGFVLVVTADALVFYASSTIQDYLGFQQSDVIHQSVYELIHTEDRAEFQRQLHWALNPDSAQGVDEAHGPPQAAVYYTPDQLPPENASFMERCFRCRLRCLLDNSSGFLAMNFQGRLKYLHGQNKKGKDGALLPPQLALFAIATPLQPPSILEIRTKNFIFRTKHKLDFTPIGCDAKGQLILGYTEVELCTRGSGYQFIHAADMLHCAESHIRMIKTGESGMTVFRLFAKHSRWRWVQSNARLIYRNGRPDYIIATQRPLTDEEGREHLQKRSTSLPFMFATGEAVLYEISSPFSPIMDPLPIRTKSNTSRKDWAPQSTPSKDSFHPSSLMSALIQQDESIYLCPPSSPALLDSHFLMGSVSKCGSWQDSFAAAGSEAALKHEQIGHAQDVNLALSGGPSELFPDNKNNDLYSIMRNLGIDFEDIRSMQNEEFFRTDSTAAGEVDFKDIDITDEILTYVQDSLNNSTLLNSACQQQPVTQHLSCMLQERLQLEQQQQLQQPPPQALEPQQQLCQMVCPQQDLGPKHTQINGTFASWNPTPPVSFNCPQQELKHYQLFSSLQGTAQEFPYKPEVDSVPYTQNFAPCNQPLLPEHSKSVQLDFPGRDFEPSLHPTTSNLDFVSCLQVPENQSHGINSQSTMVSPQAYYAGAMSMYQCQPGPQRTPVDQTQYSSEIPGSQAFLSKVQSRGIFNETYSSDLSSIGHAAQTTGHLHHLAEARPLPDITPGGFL
Procedure: Examples were tested in selected biological assays one or more times. When tested more than once, data are reported as either average values or as median values, wherein • the average value, also referred to as the arithmetic mean value, represents the sum of the values obtained divided by the number of times tested, and • the median value represents the middle number of the group of values when ranked in ascending or descending order. If the number of values in the data set is odd, the median is the middle value. If the number of values in the data set is even, the median is the arithmetic mean of the two middle values.
In addition the cells were stably transfected with an AHR inducible firefly luciferase reporter gene construct that carried AHR-binding sites (DRE) in its promoter. Kynurenic acid is an endogenous AHR activating ligand and was used to prestimulate test cells prior to testing the antagonistic properties of compounds.
As positive inhibition control cells without addition of kynurenic acid were incubated. Normalization was done by positive and negative controls.
Firefly luciferase activity was determined by the SteadyGlo Luciferase Assay System (Promega, #E2550).

IC50 [nM] | Structure (SMILES)
73.1 | COc1ccc(-c2nc3c4c(Cl)cccc4nc(NC4CNCCNC4=O)n3n2)cc1 (single isomer, unassigned) [Example 296, 6-{[10-Chloro-2-(4-methoxyphenyl)[1,2,4]triazolo[1,5-c]quinazolin-5-yl]amino}-1,4-diazepan-5-one]
4.88 | O=C1NCCCC[C@@H]1Nc1nc2ccccc2c2nc(-c3ccccc3)nn12 [Example 1, (3S)-3-[(2-phenyl[1,2,4]triazolo[1,5-c]quinazolin-5-yl)amino]azepan-2-one]
2.44 | O=C1NCCCC[C@@H]1Nc1nc2ccccc2c2nc(-c3ccc(Cl)cc3)nn12 [Example 7, (3S)-3-{[2-(4-chlorophenyl)[1,2,4]triazolo[1,5-c]quinazolin-5-yl]amino}azepan-2-one]
> 20000 | Cn1cc(-c2nc3c4ccccc4nc(N[C@H](CO)C(N)=O)n3n2)cn1 [Example 16, N^2-[2-(1-methyl-1H-pyrazol-4-yl)[1,2,4]triazolo[1,5-c]quinazolin-5-yl]-D-serinamide]
9.69 | COc1ccc(-c2nc3c4ccccc4nc(N[C@H](CC(C)C)C(N)=O)n3n2)cc1 [Example 27, N^2-[2-(4-methoxyphenyl)[1,2,4]triazolo[1,5-c]quinazolin-5-yl]-D-leucinamide]
6.56 | COc1ccc(-c2nc3c4ccccc4nc(NC4CCCNC4=O)n3n2)cc1 (stereo not shown) [Example 28, 3-{[2-(4-methoxyphenyl)[1,2,4]triazolo[1,5-c]quinazolin-5-yl]amino}piperidin-2-one]
9.76 | COc1ccc(-c2nc3c4ccccc4nc(N[C@H]4CCCCNC4=O)n3n2)cc1 [Example 30, (3S)-3-{[2-(4-methoxyphenyl)[1,2,4]triazolo[1,5-c]quinazolin-5-yl]amino}azepan-2-one]
13.4 | COc1ccc(-c2nc3c4ccccc4nc(NC4CCNC4=O)n3n2)cc1 (stereo not shown) [Example 31, 3-{[2-(4-methoxyphenyl)[1,2,4]triazolo[1,5-c]quinazolin-5-yl]amino}pyrrolidin-2-one]
10 | O=C1NCCCC1Nc1nc2ccccc2c2nc(-c3ccc(F)cc3)nn12 (stereo not shown) [Example 72, 3-{[2-(4-fluorophenyl)[1,2,4]triazolo[1,5-c]quinazolin-5-yl]amino}piperidin-2-one]
3.87 | O=C1NCCC1Nc1nc2ccccc2c2nc(-c3ccc(F)cc3)nn12 (stereo not shown) [Example 73, 3-{[2-(4-fluorophenyl)[1,2,4]triazolo[1,5-c]quinazolin-5-yl]amino}pyrrolidin-2-one]
1140 | COc1cccc(-c2nc3c4ccccc4nc(NC(C)(C)C(N)=O)n3n2)c1 [Example 98, N^2-[2-(3-methoxyphenyl)[1,2,4]triazolo[1,5-c]quinazolin-5-yl]-2-methylalaninamide]
0.258 | O=C1NCCCC[C@H]1Nc1nc2c(F)cccc2c2nc(-c3ccc(F)cc3)nn12 [Example 139, (3R)-3-{[7-fluoro-2-(4-fluorophenyl)[1,2,4]triazolo[1,5-c]quinazolin-5-yl]amino}azepan-2-one]
14.2 | COc1cccc(-c2nc3c4cc(C)ccc4nc(N[C@H]4CCCCNC4=O)n3n2)c1 [Example 156, (3S)-3-{[2-(3-methoxyphenyl)-9-methyl[1,2,4]triazolo[1,5-c]quinazolin-5-yl]amino}azepan-2-one]

The remaining lines, values behind:

Structure (SMILES) | IC50 [nM]
COc1ccc(-c2nc3c4ccccc4nc(NC4CCCNC4=O)n3n2)cc1 (single isomer, unassigned) [Example 37, 3-{[2-(4-methoxyphenyl)[1,2,4]triazolo[1,5-c]quinazolin-5-yl]amino}piperidin-2-one] | 238
COc1ccc(-c2nc3c4c(Cl)cccc4nc(NC4CNCCNC4=O)n3n2)cc1 (single isomer, unassigned) [Example 297, 6-{[10-chloro-2-(4-methoxyphenyl)[1,2,4]triazolo[1,5-c]quinazolin-5-yl]amino}-1,4-diazepan-5-one] | 25.1
O=C1NCCNCC1Nc1nc2cccc(Cl)c2c2nc(-c3ccc(F)cc3)nn12 (single isomer, unassigned) [Example 298, 6-{[10-chloro-2-(4-fluorophenyl)[1,2,4]triazolo[1,5-c]quinazolin-5-yl]amino}-1,4-diazepan-5-one] | 63.3
O=C1NCCNCC1Nc1nc2cccc(Cl)c2c2nc(-c3ccc(F)cc3)nn12 (single isomer, unassigned) [Example 299, 6-{[10-chloro-2-(4-fluorophenyl)[1,2,4]triazolo[1,5-c]quinazolin-5-yl]amino}-1,4-diazepan-5-one] | 37.3
Cn1cc(-c2nc3c4cccc(C(F)(F)F)c4nc(NC4C(=O)NCC4(C)C)n3n2)cn1 (single isomer, unassigned; (+)) [Example 730, (+)-4,4-dimethyl-3-{[2-(1-methyl-1H-pyrazol-4-yl)-7-(trifluoromethyl)[1,2,4]triazolo[1,5-c]quinazolin-5-yl]amino}pyrrolidin-2-one] | > 20000
COc1ccc(-c2nc3c4c(Br)cccc4nc(N[C@@H]4CNCCNC4=O)n3n2)cc1 (stereo in doubt) [Example 281, 6-{[10-bromo-2-(4-methoxyphenyl)[1,2,4]triazolo[1,5-c]quinazolin-5-yl]amino}-1,4-diazepan-5-one] | 23.6
COc1ccc(-c2nc3c4ccccc4nc(N[C@@H](CCCCNC(=O)OC(C)(C)C)C(N)=O)n3n2)cc1 [Example 25, tert-butyl [(5S)-6-amino-5-{[2-(4-methoxyphenyl)[1,2,4]triazolo[1,5-c]quinazolin-5-yl]amino}-6-oxohexyl]carbamate] | 485
COc1ccc(-c2nc3c4ccccc4nc(N[C@H](CO)C(N)=O)n3n2)cc1 [Example 26, N^2-[2-(4-methoxyphenyl)[1,2,4]triazolo[1,5-c]quinazolin-5-yl]-D-serinamide] | 16.7
COc1ccc(-c2nc3c4ccccc4nc(NC4CNCCNC4=O)n3n2)cc1 (stereo not shown) [Example 34, 6-{[2-(4-methoxyphenyl)[1,2,4]triazolo[1,5-c]quinazolin-5-yl]amino}-1,4-diazepan-5-one] | 23.8
Cc1ccc(-c2nc3c4ccccc4nc(N[C@@H]4CCCCNC4=O)n3n2)cc1 [Example 56, (3R)-3-{[2-(4-methylphenyl)[1,2,4]triazolo[1,5-c]quinazolin-5-yl]amino}azepan-2-one] | 0.18
O=C1NCCCC[C@@H]1Nc1nc2ccccc2c2nc(-c3ccc(F)cc3)nn12 [Example 71, (3S)-3-{[2-(4-fluorophenyl)[1,2,4]triazolo[1,5-c]quinazolin-5-yl]amino}azepan-2-one] | 3.86
COc1cccc(-c2nc3c4ccccc4nc(N[C@@H](C(=O)O)C(C)C)n3n2)c1 [Example 94, N-[2-(3-methoxyphenyl)[1,2,4]triazolo[1,5-c]quinazolin-5-yl]-D-valine] | 17
CC[C@@H](Nc1nc2ccccc2c2nc(-c3cccc(OC)c3)nn12)C(=O)O [Example 95, (2R)-2-{[2-(3-methoxyphenyl)[1,2,4]triazolo[1,5-c]quinazolin-5-yl]amino}butanoic acid] | 399
COc1cccc(-c2nc3c4ccccc4nc(N[C@H](CCSC)C(N)=O)n3n2)c1 [Example 96, N^2-[2-(3-methoxyphenyl)[1,2,4]triazolo[1,5-c]quinazolin-5-yl]-D-methioninamide] | 269
COc1cccc(-c2nc3c4cc(C)ccc4nc(NC4CCCNC4=O)n3n2)c1 (stereo not shown) [Example 157, 3-{[2-(3-methoxyphenyl)-9-methyl[1,2,4]triazolo[1,5-c]quinazolin-5-yl]amino}piperidin-2-one] | 45.4
